# Legend:
# angiogenesis = details: cited from earlier work
# [1] = FUra versus FdUrd; cited from earlier work
# [2] = substrate: O=c1[nH]c(=O)n([C@H]2C[C@H](O)[C@@H](CO)O2)cc1[N+](=O)[O-]; experiment: UV-Vis spectrophotometric thymidine phosphorylase assay with 5NdU as substrate; assay type: biochemical; details: other: substrate, pH 6.01
# Procedure: Binding constants were determined by UV-Vis spectrophotometery using 2′-deoxy-5-nitrouridine (5NdU) as the substrate (Km=50 μM at pH 6.01). The reaction mixture consisted of inhibitor (approximately 1/10×Ki to 10×Ki), 50 mM MES (pH 6.01), 150 mM NaCl, 1 mM EDTA, 5 mM inorganic phosphate, and 250 μM 5NdU in a total of 1 ml. Thymidine phosphorylase was added to approximately 10 nM (1 nM enzyme was used for D723333-P) and the reaction was monitored at λ=347 nm for 30 min. At least five concentrations of inhibitor were used for each compound and experiments were repeated in triplicate. Initial rates were determined by a linear least-squares fit. The Ki for each compound was then determined using the following equation: [formula] where ν is the rate of reaction and V is the maximal rate in the absence of inhibitor.
molecule,measurement,setting,value
N=C1CCCN1Cc1[nH]c(=O)[nH]c(=O)c1Cl [TPI],antiangiogenic activity in vivo,angiogenesis,some antiangiogenic activity in vivo
"O=c1[nH]cc(F)c(=O)[nH]1 [FUra, 5-fluorouracil]",fold less potent than FdUrd,[1],100 to 1000 fold
Thymidine phosphorylase (Homo sapiens) (protein) APPAPGDFSGEGSQGLPDPSPEPKQLPELIRMKRDGGRLSEADIRGFVAAVVNGSAQGAQIGAMLMAIRLRGMDLEETSVLTQALAQSGQQLEWPEAWRQQLVDKHSTGGVGDKVSLVLAPALAACGCKVPMISGRGLGHTGGTLDKLESIPGFNVIQSPEQMQVLLDQAGCCIVGQSEQLVPADGILYAARDVTATVDSLPLITASILSKKLVEGLSALVVDVKFGGAAVFPNQEQARELAKTLVGVGASLGLRVAAALTAMDKPLGRCVGHALEVEEALLCMDGAGPPDLRDLVTTLGGALLWLSGHAGTQAQGAARVAAALDDGSALGRFERMLAAQGVDPGLARALCSGSPAERRQLLPRAREQEELLAPADGTVELVRALPLALVLHELGAGRSRAGEPLRLGVGAELLVDVGQRLRRGTPWLRVHRDGPALSGPQSRALQEALVLSDRAPFAAPSPFAELVLPPQQ,Km,[2],50 µM

# — patent US20070275988A1, “Transition state structure and inhibitors of thymidine phosphorylases” (priority 2003, published 2007)
